Like-named read-outs stand apart in the source and are kept apart here.
Columns and labels:
[1] = molecular target: T1, β-kinase domain of the human insulin receptor (CKD) (Homo sapiens, UniProt P06213); assay: 32P-cytoplasmic kinase domain (CKD) autophosphorylation assay; type: biochemical; settings: 32P incorporated into CKD band, 10 minutes at room temperature, 50 μM ATP; test concentration not given
T1 construct: The complete β-kinase domain of the human insulin receptor (CKD); made in house
T1 sequence (P06213 980-1382 limits assumed): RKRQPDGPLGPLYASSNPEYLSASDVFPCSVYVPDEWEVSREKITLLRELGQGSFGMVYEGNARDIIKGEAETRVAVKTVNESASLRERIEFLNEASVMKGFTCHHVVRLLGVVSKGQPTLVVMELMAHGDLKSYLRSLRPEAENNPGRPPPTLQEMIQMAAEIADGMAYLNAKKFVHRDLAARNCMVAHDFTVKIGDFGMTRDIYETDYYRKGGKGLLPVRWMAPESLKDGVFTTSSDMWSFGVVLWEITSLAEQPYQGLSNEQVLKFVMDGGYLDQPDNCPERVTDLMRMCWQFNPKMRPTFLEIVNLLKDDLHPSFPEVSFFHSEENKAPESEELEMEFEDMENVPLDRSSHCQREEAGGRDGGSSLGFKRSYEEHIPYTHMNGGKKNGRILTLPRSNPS
Method: ^32P-cytoplasmic Kinase Domain (CKD) Autophosphorylation Assay
The complete β-kinase domain of the human insulin receptor (CKD) was expressed in, and purified from, baculovirus. CKD (4.0 μg/ml), in a solution of 29 mM HEPES (pH 7.6), 0.05% Triton X-100, 10 mM MgCl2, 2 mM MnCl2 (50 μl final volume), was combined with 50 μM ATP, and 5 μCi ^32P-ATP (3000 Ci/mmol.). A test compound, or the vehicle (DMSO), was added to a final DMSO concentration of 1%. The mixture was incubated for 10 minutes at room temperature. The reaction was terminated by the addition of 10 μl of 200 mM EDTA. A 30 μl volume was removed, mixed with 5 μl of 6× Laemmeli sodium dodecyl sulfate (SDS) treatment buffer, and heated to 95° C. for 5 minutes. A 20 μl aliquot was then run on an SDS-PAGE gel. The radioactivity incorporated into the CKD band is quantified by phosphorimaging of the gel, or scintillation counting of the excised bands.
The potency of a compound for increasing phosphorylation is expressed as a percentage of the vehicle level.

[2] = tested on: 3T3 L1 fibroblasts differentiated to adipocytes; assay: Glucose transport activity (14C-2-deoxy-D-glucose uptake); type: cell-based
Method: Glucose Transport Activity
3T3 L1 fibroblasts (ATCC) were grown in Dulbecco's modified Eagie's medium (DMEM) with 10% fetal bovine serum (FBS). The cells were plated at a density of 3×10^4 cells/well in 24-well plates. Two days after confluence was reached, the cells were treated for 3 days with […] isobutylmethylxanthine (IBMX), 1 μM dexamethasone, and 1.7 μM insulin. The cells were then transferred to DMEM with 10% fresh bovine serum with 1.7 μM insulin for 2 more days. The cells were maintained in DMEM with 10% FBS for an additional 4 days. Finally the cells were serum starved overnight in 0.1% bovine serum albumin (BSA) in DMEM prior to exposure to the test compounds.
The following day, the medium was replaced with 150 mM NaCl, 1.7 mM KCl, 0.9 mM CaCl2, K2HPO4 (pH 7.4) to which was added either the experimental compounds, or their vehicle (DMSO). Insulin or its vehicle (0.01% BSA) was diluted in the assay buffer (containing test compound or vehicle, respectively) to a final concentration of 5.6 nM. After incubation for 30 min at 37° C., 0.5 μCi/ml of ^14C-2-deoxy-D-glucose was added, and the incubation was continued for additional 30 min at 37° C. The cells were then washed 3 times with ice-cold PBS/20 mM glucose and lysed in 250 μl of lysis buffer (50 mM HEPES pH 7.6, 1% Triton X-100) for 30 min at room temperature. Radioactivity in the lysate was quantified by scintillation counting.
Once ^14C-2-deoxy-D-glucose is transported into the cell it is not released. Glucose transport is, therefore, proportional to the amount of radioactivity in the lysate. The concentration of compound necessary to produce an increase in glucose transport greater than the sum of the standard deviation of the vehicle control plus the largest standard deviation of a test sample (generally 150% of the vehicle control) was recorded as the EC (effective concentration) The results of the glucose transport activity assay are shown in Table 2,

[3] = Mus musculus, 3T3-L1, no EC recorded, not tested above 3.2 μM, insulin 5.6 nM, read-out: Glucose Transport EC (effective concentration), cells printed NT
[4] = concentration producing increase in glucose transport generally 150% of the vehicle control, insulin 5.6 nM, read-out: Glucose Transport EC (effective concentration)
[5] = Mus musculus, 3T3-L1, concentration producing increase in glucose transport generally 150% of the vehicle control, insulin 5.6 nM, read-out: Glucose Transport EC (effective concentration)

CKD phosphorylation (percentage of the vehicle level) [1] [%] | Compound | EC50 [2, 5] [µM] | also measured
105.3 | O=C(Nc1ccccc1C(=O)O)c1cc(C(=O)Nc2ccccc2C(=O)O)cc(C(=O)Nc2ccccc2C(=O)O)c1 [Compound 14, 2-({3,5-bis[N-(2-carboxyphenyl)carbamoyl]phenyl}carbonylamino)benzoic acid] |  | EC50 [2, 3]: > 3.2 µM
156.0 | O=C(Nc1cccc2cccc(S(=O)(=O)O)c12)c1cc(C(=O)Nc2cccc3cccc(S(=O)(=O)O)c23)cc(C(=O)Nc2cccc3cccc(S(=O)(=O)O)c23)c1 [Compound 15, 8-({3,5-bis[N-(8-sulfonaphthyl)carbamoyl]phenyl}carbonylamino)naphthalene-sulfonic acid] |  | EC50 [2, 4]: 3.2 µM
90.4 | O=C(O)c1ccc(CNC(=O)c2cc(C(=O)NCc3ccc(C(=O)O)cc3)cc(C(=O)NCc3ccc(C(=O)O)cc3)c2)cc1 [Compound 17, 4-{[(3,5-bis{N-[(4-carboxyphenyl)methyl]carbamoyl}phenyl)carbonylamino]-methyl}benzoic acid] | 3.2 | 
87.4 | COC(=O)c1ccccc1NC(=O)c1cc(C(=O)Nc2ccccc2C(=O)OC)cc(C(=O)Nc2ccccc2C(=O)OC)c1 [Compound 23, methyl 2-[(3,5-bis{N-[2-(methoxycarbonyl)phenyl]carbamoyl}phenyl)carbonyl-amino]benzoate] | 1.6 | 
125.5 | O=C(Nc1ccc2ccc(S(=O)(=O)O)cc2c1)c1cc(C(=O)Nc2ccc3ccc(S(=O)(=O)O)cc3c2)cc(C(=O)Nc2ccc3ccc(S(=O)(=O)O)cc3c2)c1 [Compound 13, 7-({3,5-bis[N-(7-sulfo(2-naphthyl))carbamoyl]phenyl}carbonylamino)naphthalene-2-sulfonic acid] |  | EC50 [2, 3]: > 3.2 µM
98.9 | O=C(Nc1ccc(S(=O)(=O)O)cc1)c1cc(C(=O)Nc2ccc(S(=O)(=O)O)cc2)cc(C(=O)Nc2ccc(S(=O)(=O)O)cc2)c1 [Compound 3, 4-({3,5-bis[N-(4-sulfophenyl)carbamoyl]phenyl}carbonylamino)benzenesulfonic acid] | 3.2 | 
97.8 | O=C(O)c1cc(NC(=O)c2cc(C(=O)Nc3cc(C(=O)O)cc(C(=O)O)c3)cc(C(=O)Nc3cc(C(=O)O)cc(C(=O)O)c3)c2)cc(C(=O)O)c1 [Compound 21, 5-({3,5-bis[N-(3,5-dicarboxyphenyl)carbamoyl]phenyl}carbonylamino)benzene-1,3-dicarboxylic acid] | 3.2 | 
98.8 | O=C(Nc1ccc2ccccc2c1S(=O)(=O)O)c1cc(C(=O)Nc2ccc3ccccc3c2S(=O)(=O)O)cc(C(=O)Nc2ccc3ccccc3c2S(=O)(=O)O)c1 [Compound 9, 2-({3,5-bis[N-(1-sulfo(2-naphthyl))carbamoyl]phenyl}carbonylamino)naphthalene-sulfonic acid] |  | EC50 ([2]; no EC recorded, not tested above 3.2 μM, insulin 5.6 nM, read-out: Glucose Transport EC (effective concentration), cells printed NT): > 3.2 µM
136.6 | O=C(Nc1ccc2c(S(=O)(=O)O)cccc2c1)c1cc(C(=O)Nc2ccc3c(S(=O)(=O)O)cccc3c2)cc(C(=O)Nc2ccc3c(S(=O)(=O)O)cccc3c2)c1 [Compound 12, 6-({3,5-bis[N-(5-sulfo(2-naphthyl))carbamoyl]phenyl}carbonylamino)naphthalene-sulfonic acid] |  | EC50 [2, 4]: 3.2 µM
94.54 | COC(=O)c1cccc(NC(=O)c2cc(C(=O)Nc3cccc(C(=O)OC)c3)cc(C(=O)Nc3cccc(C(=O)OC)c3)c2)c1 [Compound 18, methyl 3-[(3,5-bis{N-[3-(methoxycarbonyl)phenyl]carbamoyl}phenyl)carbonyl-amino]benzoate] | 3.2 | 
103.7 | O=C(O)c1ccc(NC(=O)c2cc(C(=O)Nc3ccc(C(=O)O)cc3)cc(C(=O)Nc3ccc(C(=O)O)cc3)c2)cc1 [Compound 1, 4-({3,5-bis[N-(4-carboxyphenyl)carbamoyl]phenyl}carbonylamino)benzoic acid] | 3.2 | 
136.8 | O=C(Nc1cccc2cc(S(=O)(=O)O)ccc12)c1cc(C(=O)Nc2cccc3cc(S(=O)(=O)O)ccc23)cc(C(=O)Nc2cccc3cc(S(=O)(=O)O)ccc23)c1 [Compound 2, 5-({3,5-bis[N-(6-sulfonaphthyl)carbamoyl]phenyl}carbonylamino)naphthalene-2-sulfonic acid] |  | EC50 [2, 4]: 3.2 µM
92.0 | O=C(Nc1cccc(S(=O)(=O)O)c1)c1cc(C(=O)Nc2cccc(S(=O)(=O)O)c2)cc(C(=O)Nc2cccc(S(=O)(=O)O)c2)c1 [Compound 10, 3-({3,5-bis[N-(3-sulfophenyl)carbamoyl]phenyl}carbonylamino)benzenesulfonic acid] | 3.2 | 
118.1 | O=C(Nc1cccc(C(=O)O)c1C(=O)O)c1cc(C(=O)Nc2cccc(C(=O)O)c2C(=O)O)cc(C(=O)Nc2cccc(C(=O)O)c2C(=O)O)c1 [Compound 22, 3-({3,5-bis[N-(2,3-dicarboxyphenyl)carbamoyl]phenyl}carbonylamino)benzene-1,2-dicarboxylic acid] | 3.2 | 
113.2 | O=C(Nc1ccccc1S(=O)(=O)O)c1cc(C(=O)Nc2ccccc2S(=O)(=O)O)cc(C(=O)Nc2ccccc2S(=O)(=O)O)c1 [Compound 8, 2-({3,5-bis[N-(2-sulfophenyl)carbamoyl]phenyl}carbonylamino)benzenesulfonic acid] | 3.2 | 
104.0 | COC(=O)c1ccc(CNC(=O)c2cc(C(=O)NCc3ccc(C(=O)OC)cc3)cc(C(=O)NCc3ccc(C(=O)OC)cc3)c2)cc1 [Compound 19, methyl 4-({[3,5-bis(N-{[4-(methoxycarbonyl)phenyl]methyl}carbamoyl)phenyl]-carbonylamino}methyl)benzoate] |  | EC50 [2, 3]: > 3.2 µM
122.7 | O=C(Nc1cccc2c(S(=O)(=O)O)cccc12)c1cc(C(=O)Nc2cccc3c(S(=O)(=O)O)cccc23)cc(C(=O)Nc2cccc3c(S(=O)(=O)O)cccc23)c1 [Compound 6, 5-({3,5-bis[N-(5-sulfonaphthyl)carbamoyl]phenyl}carbonylamino)naphthalene-sulfonic acid] |  | EC50 [2, 4]: 3.2 µM
77.4 | COC(=O)c1ccc(NC(=O)c2cc(C(=O)Nc3ccc(C(=O)OC)cc3)cc(C(=O)Nc3ccc(C(=O)OC)cc3)c2)cc1 [Compound 20, methyl 4-[(3,5-bis{N-[4-(methoxycarbonyl)phenyl]carbamoyl}phenyl)carbonyl-amino]benzoate] | 3.2 | 

Compound | CKD phosphorylation (percentage of the vehicle level) [1] [%] | EC50 [2, 5] [µM] | also measured
3,5-bis[N-(6-sulfonaphthyl)carbamoyl] benzoic acid [Compound 5] | 115.6 |  | EC50 [2, 4]: 10 µM
O=C(Nc1cccc2ccc(S(=O)(=O)[O-])cc12)c1cc(C(=O)Nc2cccc3ccc(S(=O)(=O)[O-])cc23)cc(C(=O)Nc2cccc3ccc(S(=O)(=O)[O-])cc23)c1.[Na+].[Na+].[Na+] [Compound 4, 8-({3,5-bis[N-(7-sulfonaphthyl)carbamoyl]phenyl}carbonylamino)naphthalene-2-sulfonic acid] | 134.9 |  | EC50 ([2]; Mus musculus, 3T3-L1, read-out: Glucose Transport EC (effective concentration)): 3.2 µM
